In PubChem BioAssay AID1394 (PCMD, 2008) one finds EC50 and maximum enhancement data, which are given here for 34 molecules.

Molecules are shown by their SMILES. Calls of active or inactive are those of the source.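 The calls were made as follows: active = fitted EC50 above 0 with maximum enhancement above 35%; inactive = the rest.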

E3 ubiquitin-protein ligase Mdm2 (Homo sapiens), sequence (Q00987 whole entry, looked up): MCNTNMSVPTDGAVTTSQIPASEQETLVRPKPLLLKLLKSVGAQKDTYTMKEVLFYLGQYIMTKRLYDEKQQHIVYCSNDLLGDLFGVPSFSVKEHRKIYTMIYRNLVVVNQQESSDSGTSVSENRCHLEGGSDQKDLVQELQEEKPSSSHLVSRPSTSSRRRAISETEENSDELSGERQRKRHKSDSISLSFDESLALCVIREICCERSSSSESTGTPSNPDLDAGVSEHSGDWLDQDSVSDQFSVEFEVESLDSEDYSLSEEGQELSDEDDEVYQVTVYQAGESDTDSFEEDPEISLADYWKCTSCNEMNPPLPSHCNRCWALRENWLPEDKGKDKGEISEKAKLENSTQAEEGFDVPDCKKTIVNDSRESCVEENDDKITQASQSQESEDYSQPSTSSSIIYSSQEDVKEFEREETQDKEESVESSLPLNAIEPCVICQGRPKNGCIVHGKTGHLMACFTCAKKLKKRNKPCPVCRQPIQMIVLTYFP

The first assay addresses E3 ubiquitin-protein ligase Mdm2 (Homo sapiens) (UniProt Q00987). Kind of assay: 384-well cell-based luminescence, MDM2-luciferase reporter signal enhancement, concentration series, MDM2 ligase inhibitor project (AID 1394). Particulars: cells, MDM2-luciferase autoubiquitination reporter, 2 h.
Regarding `O=C1CC(c2cccc(Cl)c2)CC(O)=C1C=NC1CCCC1` (centres undefined), the EC50 result was “inactive”.

Still in this assay, the particulars now being: cells, MDM2-luciferase autoubiquitination reporter, 2 h.
Take `Cc1ccc(Nc2nnc(SCC3CCCCO3)s2)cc1` (centres undefined): the maximum enhancement result is “inactive”.
The same measure, in the same setting: the same measure for `CCn1cc(C(=O)NCc2ccccc2OC)c(=O)c2cc(S(=O)(=O)N(C)C)ccc21`: “inactive”; for `Cn1c(=NC(=O)c2ccc3c(c2)OCCO3)sc2cc(S(C)(=O)=O)ccc21`: “inactive”.
With `Fc1cccc(Cl)c1/C=N/n1c(-c2cccnc2)n[nH]c1=S`, the maximum enhancement result was “inactive”.
For the molecule `CC(=O)Cc1nsc(Nc2ccc(C)cc2)n1`, the maximum enhancement result was “inactive”.
The same measure, in the same setting: the same measure for `Cc1[nH]c2ccc(Cl)cc2c(=O)c1CN1CCCC1`: “inactive”.
On the same count and under the same terms, the same measure for `O=C(CNCc1ccc(Cl)cc1)Nc1cccc(C(=O)O)c1`: “inactive”; for `Cc1ccc(N2C(=O)NC(=O)/C(=C\C=C\c3ccco3)C2=O)cc1C`: “inactive”; for `COc1cc(/C=C2/C(=N)N3OC(C)=CC3=NC2=O)ccc1OC(=O)c1ccco1`: “inactive”.
Still for that read-out and setting: as for `O=S1(=O)C=C(Sc2nc3ccccc3s2)c2ccccc21`, the entry is “inactive”.
`O=C(c1cn(-c2ccccc2)nc1-c1cccs1)N1CCOCC1`: the maximum enhancement result is “inactive”.
Still for that read-out and setting: as for `C/C(=N\NC(N)=S)c1cccnc1`, the entry is “inactive”; as for `COc1ccc(N2C(=S)N=C(Nc3ccccc3)C23CCCCC3)cc1`, “inactive”.
For `CCN(CC)Cc1cc(C(=O)O)c(C)o1`, the maximum enhancement result was “inactive”.
The same measure, in the same setting: as for `COc1ccccc1-c1nnc(Nc2nc3c(OC)cccc3s2)o1`, the entry is “inactive”; as for `Cc1cc(C)cc(OCC(=O)NNC(=O)CCN2C(=O)c3ccccc3C2=O)c1`, “inactive”; as for `CCCCS(=O)(=O)/C=C\C=C/S(=O)(=O)CCCC`, “inactive”.
Consider `Cc1ccc(/C=C2/NC(=O)N(Cc3ccc(Br)cc3)C2=O)o1`, for which the maximum enhancement result is “inactive”.
The same measure, in the same setting: the same measure for `O=C(CN1CCCCC1)NC(=O)NCc1ccccc1`: “inactive”; for `N=C1C(c2nc3ccccc3[nH]2)=C(O)CN1c1ccccc1`: “inactive”.
In the case of `CCN(C(=O)CSc1nc2ccccc2c(=O)n1-c1cccc(C)c1)C1CCS(=O)(=O)C1` (centres undefined), the maximum enhancement result is “inactive”.
On the same count and under the same terms, the same measure for `N#Cc1nc(Cc2ccccc2)oc1NCCN1CCOCC1`: “inactive”; for `CCc1cc2c(=O)c(-c3nc4ccccc4n3C)c(CCCC(=O)O)oc2cc1OC(=O)C(C)(C)C`: “inactive”.
Regarding `COc1ccc(OC(C)C(=O)Nc2ccccc2C(F)(F)F)cc1` (centres undefined), the maximum enhancement result was “inactive”.
Same read-out and setting: as for `COC(Cn1cc(C)c(=O)[nH]c1=O)OC`, the entry is “inactive”.
The same measure, in the same setting: the same measure for `O=C(O)CCc1ccc(-c2ccc(Br)cc2)n1CC(=O)O`: “inactive”; for `CC1=NN(c2ccc(C)cc2)C(=O)/C1=C\C=C\c1ccccc1`: “inactive”.
Still for that read-out and setting: the same measure for `COc1ccc(NC(=O)/C(C#N)=C\c2ccc(OCc3ccc(C(=O)O)cc3)c(OC)c2)cc1`: “inactive”; for `Cc1cc(=O)n2[nH]c(N3C(=O)CCC3=O)nc2n1`: “inactive”; for `CCCCC(=O)/C=C/n1c(=S)oc2ccccc21`: “inactive”.
Turning to `O=C(COc1ccccc1)Nc1ncccn1`, the maximum enhancement entry is “inactive”.
Same read-out and setting: the same measure for `C=C1CCN(C(C(=O)OC)C(C)C)S(=O)(=O)c2ccccc21` (centres undefined): “inactive”; for `Cn1c(=O)cc(OCC(=O)NCc2cccs2)c2ccccc21`: “inactive”.
